In patent US20250230193A1, “CYCLIC COMPOUND HAVING SELECTIVE KRAS INHIBITORY EFFECT ON HRAS AND NRAS” (CHUGAI SEIYAKU KABUSHIKI KAISHA, priority 2022, published 2025):
Where a SMILES comes first, the peptide text is derived from it. Bridges are numbered along the chain shown (N, C = ends). [ ]: non-standard residue; d: D form. hPhe(3-Cl-4-CF3) = N[C@@H](CCc1ccc(C(F)(F)F)c(Cl)c1)C(=O)O; NPrPhe(4-CF3) = CCCN[C@@H](Cc1ccc(C(F)(F)F)cc1)C(=O)O; NMeGly(cPent) = CN[C@H](C(=O)O)C1CCCC1; NMeL = CN[C@@H](CC(C)C)C(=O)O; Ac4c = NC1(C(=O)O)CCC1; Sar = CNCC(=O)O

Key:
[1] = molecular target: GDP-bound NRAS wild-type protein (Homo sapiens, UniProt P01111); assay: Binding to NRAS by surface plasmon resonance (SPR), Single Cycle Kinetics
Chain of GDP-bound NRAS wild-type protein (P01111 whole entry): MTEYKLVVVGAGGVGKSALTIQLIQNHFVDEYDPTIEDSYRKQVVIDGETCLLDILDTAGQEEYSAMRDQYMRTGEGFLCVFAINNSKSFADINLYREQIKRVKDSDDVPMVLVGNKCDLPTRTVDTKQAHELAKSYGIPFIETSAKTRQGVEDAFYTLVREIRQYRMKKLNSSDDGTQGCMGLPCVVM

[2] = molecular target: GDP-bound HRAS wild-type protein (Homo sapiens, UniProt P01112); assay: Binding to HRAS by surface plasmon resonance (SPR), Single Cycle Kinetics
Chain of GDP-bound HRAS wild-type protein (P01112 whole entry): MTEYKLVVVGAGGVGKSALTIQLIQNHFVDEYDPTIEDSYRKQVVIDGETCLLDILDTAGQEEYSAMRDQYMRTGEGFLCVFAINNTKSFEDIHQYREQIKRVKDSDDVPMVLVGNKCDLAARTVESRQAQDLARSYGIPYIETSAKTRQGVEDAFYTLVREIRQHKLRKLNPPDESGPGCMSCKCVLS

[3] = KD ratio, GDP-bound NRAS wild-type vs GDP-bound KRAS wild-type, SPR
[4] = KD ratio, GDP-bound HRAS wild-type vs GDP-bound KRAS wild-type, SPR

SMILES: CCC[C@H]1C(=O)N[C@@H]([C@@H](C)CC)C(=O)N(C)CC(=O)N(C)[C@H]2C/C=C\CCN(C2=O)[C@@H](Cc2ccc(C(F)(F)F)cc2)C(=O)N(C)CC(=O)N[C@@H](CCc2ccc(C(F)(F)F)c(OC)c2)C(=O)N2CCOC[C@H]2C(=O)NC2(CC(C)(C)C2)C(=O)N(C)[C@@H](C(CC)CC)C(=O)N(C)[C@H](C(=O)N(C)C)CC(=O)N1C [PP2935]
- NRAS/KRAS (ratio of KD value with respect to GDP-bound NRAS wild-type protein to KD value with respect to KRAS) ([1]; KD ratio NRAS/KRAS, class symbols): A (a compound having 10 or more and less than 20 is denoted as A)
- HRAS/KRAS (ratio of KD value with respect to GDP-bound HRAS wild-type protein to KD value with respect to KRAS) ([2]; KD ratio HRAS/KRAS, class symbols): A (a compound having 10 or more and less than 20 is denoted as A)

SMILES: CCCN1C(=O)CN(C)C(=O)CN(C)C(=O)[C@H]([C@@H](C)CC)NC(=O)[C@H](CC(C)C)N(C)C(=O)C[C@@H](C(=O)N(C)C)NC(=O)[C@H](C2CCCC2)N(C)C(=O)C2(CCC2)NC(=O)[C@@H]2CCCN2C(=O)[C@H](CCc2ccc(C(F)(F)F)c(Cl)c2)NC(=O)CN(C)C(=O)[C@@H]1Cc1ccc(C(F)(F)F)cc1 [PP0356] ([NMeL]I[Sar][Sar][NPrPhe(4-CF3)][Sar][hPhe(3-Cl-4-CF3)]P[Ac4c][NMeGly(cPent)]D-NMe2; lactam N-11)
- NRAS/KRAS (ratio of KD for GDP-bound NRAS wild-type to KD for KRAS) ([1]; KD ratio NRAS/KRAS, SPR): B (a compound having 3 or more and less than 10 is denoted as B)
- HRAS/KRAS (ratio of KD for GDP-bound HRAS wild-type to KD for KRAS) ([2]; KD ratio HRAS/KRAS, SPR): B (a compound having 3 or more and less than 10 is denoted as B)

SMILES: CC[C@H](C)[C@@H]1NC(=O)[C@H](C)N(C)C(=O)C[C@@H](C(=O)N2CCOCC2)N(C)C(=O)[C@H](C2CCCC2)N(C)C(=O)C2(CCC2)NC(=O)[C@@H]2CC(F)(F)CN2C(=O)[C@H](CCc2cc(F)c(C(F)(F)F)c(F)c2)NC(=O)CN(C)C(=O)[C@H](Cc2ccc(C(F)(F)F)cc2)N2CCCC[C@@H](C2=O)N(C)C(=O)CN(C)C1=O [PP0582]
- NRAS/KRAS (ratio of KD value with respect to GDP-bound NRAS wild-type protein to KD value with respect to KRAS) ([1]; KD ratio NRAS/KRAS, SPR): C (A compound having a KD ratio of 0.1 or more and less than 3 is denoted as C)
- HRAS/KRAS (ratio of KD value with respect to GDP-bound HRAS wild-type protein to KD value with respect to KRAS) ([2]; KD ratio HRAS/KRAS, SPR): B (a compound having 3 or more and less than 10 is denoted as B)

SMILES: CCO[C@@H]1C[C@H]2C(=O)NC3(CCC3)C(=O)N(C)[C@@H](C(CC)CC)C(=O)N(C)[C@H](C(=O)N3CCCC3)CC(=O)N(C)[C@H]3CCCCC/C=C/c4ccc(cc4)C[C@@H](C(=O)N(C)CC(=O)N[C@@H](CCc4ccc(Cl)c(Cl)c4)C(=O)N2C1)N1CC/C=C\C[C@@H](C1=O)N(C)C(=O)CN(C)C(=O)[C@H]([C@@H](C)CC)NC3=O [PP3052]
- NRAS/KRAS (ratio of KD value with respect to GDP-bound NRAS wild-type protein to KD value with respect to KRAS) ([1]; KD ratio NRAS/KRAS, SPR, GDP-bound wild-type proteins): AA (a compound having 20 or more is denoted as AA)
- HRAS/KRAS (ratio of KD value with respect to GDP-bound HRAS wild-type protein to KD value with respect to KRAS) ([2]; KD ratio HRAS/KRAS, SPR, GDP-bound wild-type proteins): A (a compound having 10 or more and less than 20 is denoted as A)

SMILES: CC[C@H](C)[C@@H]1NC(=O)[C@H](CC(C)C)N(C)C(=O)C[C@@H](C(=O)N2CCOCC2)N(C)C(=O)[C@H](C2CCCC2)N(C)C(=O)C2(CCCC2)NC(=O)[C@H](C)N(CC)C(=O)[C@H](CCc2cc(F)c(C(F)(F)F)c(F)c2)NC(=O)CN(C)C(=O)[C@H](Cc2ccc(C(F)(F)F)cc2)N2CCCCC[C@@H](C2=O)N(C)C(=O)CN(C)C1=O [PP0515]
- NRAS/KRAS (ratio of KD value with respect to GDP-bound NRAS wild-type protein to KD value with respect to KRAS) ([1]; KD ratio NRAS/KRAS, SPR): B (a compound having 3 or more and less than 10 is denoted as B)
- HRAS/KRAS (ratio of KD value with respect to GDP-bound HRAS wild-type protein to KD value with respect to KRAS) ([2]; KD ratio HRAS/KRAS, SPR): B (a compound having 3 or more and less than 10 is denoted as B)

SMILES: CCO[C@@H]1C[C@H]2C(=O)NC3(CCC3)C(=O)N(C)[C@@H](C3CCCC3)C(=O)N(CC)[C@H](C(=O)N3CCOCC3)CC(=O)N(C)[C@@H](CC)C(=O)N[C@@H]([C@@H](C)CC)C(=O)N(C)CC(=O)N(C)[C@H]3CCCCCN(C3=O)[C@@H](Cc3ccc(C(F)(F)F)cc3)C(=O)N(C)CC(=O)N[C@@H](CCc3cc(F)c(C(F)(F)F)c(F)c3)C(=O)N2C1 [PP0944]
- NRAS/KRAS (ratio of KD value with respect to NRAS to KD value with respect to KRAS) [1, 3]: A (a compound having 10 or more and less than 20 is denoted as A)
- HRAS/KRAS (ratio of KD value with respect to HRAS to KD value with respect to KRAS) [2, 4]: A (a compound having 10 or more and less than 20 is denoted as A)

SMILES: CCO[C@@H]1C[C@H]2C(=O)NC3(CC(C)(C)C3)C(=O)N(C)[C@@H](C3CCCC3)C(=O)N(C)[C@H](C(=O)N(C)C)CC(=O)N(C)[C@@H](CC3CC3)C(=O)N[C@@H]([C@@H](C)CC)C(=O)N(C)CC(=O)N(C)[C@H]3C/C=C\CCN(C3=O)[C@@H](Cc3ccc(C)cc3)C(=O)N(C)CC(=O)N[C@@H](CCc3ccc(C(F)(F)F)c(OC)c3)C(=O)N2C1 [PP1903]
- NRAS/KRAS (ratio of KD value for NRAS to KD value for KRAS) [1, 3]: A (a compound having 10 or more and less than 20 is denoted as A)
- HRAS/KRAS (ratio of KD value for HRAS to KD value for KRAS) [2, 4]: B (a compound having 3 or more and less than 10 is denoted as B)
